Measured values published in patent publication US20250188110A1, “SPECIFIC SMALL MOLECULE INHIBITORS THAT BLOCK KMT9 METHYLTRANSFERASE ACTIVITY AND FUNCTION” (ALBERT-LUDWIGS-UNIVERSITÄT FREIBURG, priority 2021, published 2025).
Read-outs that look alike come from different tables or passages of the source.

Columns and labels:
[1] = biological target: T1, KMT9 (Homo sapiens, UniProt Q9Y5N5); assay: KMT9 thermal shift assay (SyproOrange); assay type: binding
T1 sequence (Q9Y5N5 1-214): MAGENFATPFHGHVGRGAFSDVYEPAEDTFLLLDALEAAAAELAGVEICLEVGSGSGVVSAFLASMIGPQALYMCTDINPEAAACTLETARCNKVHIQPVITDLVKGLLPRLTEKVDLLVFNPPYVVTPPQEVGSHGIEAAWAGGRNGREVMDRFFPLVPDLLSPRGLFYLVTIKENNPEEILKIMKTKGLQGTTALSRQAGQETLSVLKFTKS
T1 sequence (Q9UI30 1-120 isoform Q9UI30-2 partner): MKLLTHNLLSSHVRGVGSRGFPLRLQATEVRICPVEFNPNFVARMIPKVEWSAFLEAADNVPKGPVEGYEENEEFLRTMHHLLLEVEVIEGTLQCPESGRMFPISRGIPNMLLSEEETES
How it was run: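 Recombinant KMT9 was incubated with compound and SyproOrange at 25° C in 50 mM BTP pH 8.5, 1 mM MgCl2, 1 mM DTT. It was then heated from 20° C to 95° C at 1° C per 15 s with fluorescence read each step. Tm came from a Boltzmann sigmoidal fit; ΔTm relative to DMSO control, binned in 5 K ranges.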

[2] = biological target: T1, KMT9; assay: KMT9 methyltransferase inhibition assay, MTaseGlo luminescence (from entry 155); assay type: biochemical; conditions: 100 nM KMT9, 5 μM ETF1, 1 μM SAM
Method: For the compounds from entry 155 on in Table 1, the following procedure was used to determine IC50 values: The assay was carried out in white, opaque 384-well OptiPlates (PerkinElmer). For IC50 determination, a 2.5x substrate mix (final assay concentrations: 5 μM ETF1, 1 μM SAM and 1x MTaseGlo Reagent), a 2.5x KMT9 solution (final assay concentration 100 nM) and a 5x inhibitor stock 1:1 dilution series (concentration according to the desired range; dilution series was prepared in assay buffer containing 10% DMSO to obtain a final DMSO concentration of 2% in the assay) were prepared. 2 μL of 5x inhibitor stock and 4 μL of 2.5x KMT9 were pipetted, the plate was spun down at 700 rpm for 1 min using a Hettich UNIVERSAL 320 centrifuge and incubated at room temperature (around 25° C.) for 15 min. The reaction was initiated by adding 4 μL of 2.5x substrate mix, the plate was spun down as described before and incubated at 30° C. for 2 h. Afterwards, 10 μL of 2× MTaseGlo Detection solution was added, the plate was centrifuged as described above and incubated for 60 min at room temperature. Luminescence was measured using a PerkinElmer EnVision 2102 Multilabel Reader. Calculation of inhibition and data fitting was carried out as for entries 1-154. described above.
For the results of the methyltransferase inhibition assay shown as “Inhibition” in Table 1, “I” represents an IC50 less than 0.1 μM, “II” represents an IC50 equal or higher than 0.1 μM and less than 1 μM, “III” represents an IC50 equal or higher than 1 µM and less than 10 µM and “IV” represents an IC50 equal or higher than 10 µM

[3] = biological target: T1, KMT9; assay: Microscale thermophoresis (MST) KMT9 binding
How it was run: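 His-tagged KMT9 (20 nM), RED-Tris-NTA labelled, titrated with varying compound concentrations in 25 mM HEPES pH 7.5, 100 mM NaCl, 1 mM DTT, 0.05% Tween. MST at 40% MST and 100% LED power, Nano-RED excitation; Kd binned A ≤10 nM, B 10–100, C 100–1000, D >1000 nM.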

[4] = 500 µM compound, 2 μM KMT9, read-out: Thermal shift (ΔTm)
[5] = MTaseGlo procedure (entries from 155), read-out: Inhibition (IC50)
[6] = His-tag labelled KMT9 20 nM, read-out: MST (Kd)
[7] = ΔTm class, 500 uM compound, 2 μM KMT9, read-out: Thermal shift
[8] = IC50 class, MTaseGlo procedure (entries from 155 on), read-out: Inhibition
[9] = His-tag labelled KMT9 20 nM, Kd class, read-out: MST
[10] = ΔTm, 500 µM compound, 2 μM KMT9, 5X SO, read-out: Thermal shift
[11] = from entry 155: MTaseGlo assay, read-out: Inhibition
[12] = microscale thermophoresis, His-tag labelled KMT9 (20 nM), read-out: MST

**Q.** Which results are given for CNc1ncnc2c1ccn2[C@@H]1C[C@H](c2ccc(O)cc2)[C@@H](O)[C@H]1O [Compound 406, (1S,2R,3R,5R)-3-(4-hydroxyphenyl)-5-(4-(methylamino)-7H-pyrrolo[2,3-a]pyrimidin-7-yl) cyclopentane-1,2-diol]?
**A.** ΔTm at 500 µM [1, 4]: ≤ 10 °C; IC50 [2, 5]: > 10000 nM; Kd [3, 6]: > 1000 nM

**Q.** With Nc1ncnc2c1ccn2[C@@H]1C[C@H](c2cccc(Cl)c2)[C@@H](O)[C@H]1O [Compound 407, (1R,2S,3R,5R)-3-(4-amino-7H-pyrrolo[2,3-d]pyrimidin-7-yl)-5-(3-chlorophenyl) cyclopentane-1,2-diol] as the compound, how does the ΔTm at 500 µM [1, 4] read?
**A.** ≤ 10 °C

**Q.** And the IC50 [2, 5]?
**A.** > 10000 nM

**Q.** What about the Kd [3, 6] of the same compound?
**A.** > 1000 nM

**Q.** Which results are given for CC(=O)c1cccc([C@H]2C[C@@H](n3ccc4c(N)ncnc43)[C@H](O)[C@@H]2O)c1 [Compound 408, 1-(3-((1R,2R,3S,4R)-4-(4-amino-7H-pyrrolo[2,3-d]pyrimidin-7-yl)-2,3-dihydroxycyclopentyl)phenyl)ethan-1-one]?
**A.** ΔTm at 500 µM [1, 4]: ≤ 10 °C; IC50 [2, 5]: > 10000 nM; Kd [3, 6]: > 1000 nM

**Q.** For Nc1ccc([C@H]2C[C@@H](n3ccc4c(N)ncnc43)[C@H](O)[C@@H]2O)cc1 [Compound 409, (1r,2s,3r,5r)-3-(4-amino-7H-pyrrolo[2,3-d]pyrimidin-7-yl)-5-(4-aminophenyl) cyclopentane-1,2-diol], which ΔTm at 500 µM [1, 7] is on record?
**A.** ≤ 10 °C

**Q.** What about the IC50 [2, 8] of the same compound?
**A.** > 10000 nM

**Q.** What about the Kd [3, 9] of the same compound?
**A.** > 1000 nM

**Q.** Which results are given for Nc1cccc([C@H]2C[C@@H](n3ccc4c(N)ncnc43)[C@H](O)[C@@H]2O)c1 [Compound 410, (1R,2S,3R,5R)-3-(4-amino-7H-pyrrolo[2,3-d]pyrimidin-7-yl)-5-(3-aminophenyl) cyclopentane-1,2-diol]?
**A.** ΔTm at 500 µM [1, 4]: ≤ 10 °C; IC50 [2, 5]: > 10000 nM; Kd [3, 6]: > 1000 nM

**Q.** With CN1CCC([C@H]2C[C@@H](n3cc(-c4ccn(Cc5ccccc5)n4)c4cnc(Cl)nc43)[C@H](O)[C@@H]2O)CC1 [Compound 491, (1R,2S,3R,5R)-3-(5-(1-benzyl-1H-pyrazol-3-yl)-2-chloro-7H-pyrrolo[2,3-d]pyrimidin-7-yl)-5-(1-methylpiperidin-4-yl)cyclopentane-1,2-diol] as the compound, how does the ΔTm at 500 µM [1, 7] read?
**A.** 15 to 20 °C

**Q.** What about the IC50 [2, 8] of the same compound?
**A.** 100 to 1000 nM

**Q.** And the Kd [3, 9]?
**A.** 100 to 1000 nM

**Q.** What does the source list for CN1CCC([C@H]2C[C@@H](n3cc(-c4ccn(S(=O)(=O)c5ccccc5)n4)c4c(N)nc(Cl)nc43)[C@H](O)[C@@H]2O)CC1 [Compound 492, (1R,2S,3R,5R)-3-(4-Amino-2-chloro-5-(1-(phenylsulfonyl)-1H-pyrazol-3-yl)-7H-pyrrolo[2,3-d]pyrimidin-7-yl)-5-(1-methylpiperidin-4-yl)cyclopentane-1,2-diol]?
**A.** ΔTm at 500 µM [1, 7]: > 20 °C; IC50 [2, 8]: 100 to 1000 nM; Kd [3, 9]: ≤ 10 nM

**Q.** Which ΔTm at 500 µM [1, 4] does the source give for CN1CC=C([C@H]2C[C@@H](n3cc(-c4nccs4)c4c(N)nc(Cl)nc43)[C@H](O)[C@@H]2O)CC1 [Compound 493, (1R,2S,3R,5R)-3-(4-Amino-2-chloro-5-(thiazol-2-yl)-7H-pyrrolo[2,3-d]pyrimidin-7-yl)-5-(1-methyl-1,2,3,6-tetrahydropyridin-4-yl)cyclopentane-1,2-diol] here?
**A.** 15 to 20 °C

**Q.** And the IC50 [2, 5]?
**A.** 100 to 1000 nM

**Q.** What about the Kd [3, 6] of the same compound?
**A.** ≤ 10 nM

**Q.** What does the source list for CN1CCC([C@H]2C[C@@H](n3cc(-c4ccn(S(=O)(=O)c5ccccc5)n4)c4cnc(Cl)nc43)[C@H](O)[C@@H]2O)CC1 [Compound 495, (1R,2S,3R,5R)-3-(2-Chloro-5-(1-(phenylsulfonyl)-1H-pyrazol-3-yl)-7H-pyrrolo[2,3-d]pyrimidin-7-yl)-5-(1-methylpiperidin-4-yl)cyclopentane-1,2-diol]?
**A.** ΔTm at 500 µM [1, 7]: 15 to 20 °C; IC50 [2, 8]: 1000 to 10000 nM; Kd [3, 9]: 10 to 100 nM

**Q.** Which ΔTm at 500 µM [1, 7] does the source give for CN1CCC([C@H]2C[C@@H](n3cc(-c4nc(Cc5ccccc5)cs4)c4cnc(Cl)nc43)[C@H](O)[C@@H]2O)CC1 [Compound 496, (1R,2S,3R,5R)-3-(5-(4-benzylthiazol-2-yl)-2-chloro-7H-pyrrolo[2,3-d]pyrimidin-7-yl)-5-(1-methylpiperidin-4-yl)cyclopentane-1,2-diol] here?
**A.** 15 to 20 °C

**Q.** What about the IC50 [2, 8] of the same compound?
**A.** 1000 to 10000 nM

**Q.** And the Kd [3, 9]?
**A.** 10 to 100 nM

**Q.** With O[C@@H]1[C@H](O)[C@@H](C2CCN(CC3CC3)CC2)C[C@H]1n1cc(-c2nc(Cc3ccccc3)cs2)c2cnc(Cl)nc21 [Compound 497, (1R,2S,3R,5R)-3-(5-(4-Benzylthiazol-2-yl)-2-chloro-7H-pyrrolo[2,3-d]pyrimidin-7-yl)-5-(1-(cyclopropylmethyl)piperidin-4-yl)cyclopentane-1,2-diol] as the compound, how does the ΔTm at 500 µM [1, 7] read?
**A.** 10 to 15 °C

**Q.** And the IC50 [2, 8]?
**A.** 1000 to 10000 nM

**Q.** What about the Kd [3, 9] of the same compound?
**A.** 10 to 100 nM

**Q.** Which results are given for O[C@@H]1[C@H](O)[C@@H](C2CCN(CCc3ccccc3)CC2)C[C@H]1n1cc(-c2nc(Cc3ccccc3)cs2)c2cnc(Cl)nc21 [Compound 498, (1R,2S,3R,5R)-3-(5-(4-Benzylthiazol-2-yl)-2-chloro-7H-pyrrolo[2,3-d]pyrimidin-7-yl)-5-(1-phenethylpiperidin-4-yl)cyclopentane-1,2-diol]?
**A.** ΔTm at 500 µM [1, 7]: 10 to 15 °C; IC50 [2, 8]: 1000 to 10000 nM; Kd [3, 9]: 10 to 100 nM

**Q.** O[C@@H]1[C@H](O)[C@@H](C2CCN(CC(F)(F)F)CC2)C[C@H]1n1cc(-c2nc(Cc3ccccc3)cs2)c2cnc(Cl)nc21 [Compound 499, (1R,2S,3R,5R)-3-(5-(4-Benzylthiazol-2-yl)-2-chloro-7H-pyrrolo[2,3-d]pyrimidin-7-yl)-5-(1-(2,2,2-trifluoroethyl)piperidin-4-yl)cyclopentane-1,2-diol] was tested. Which ΔTm at 500 µM [1, 7] did it give?
**A.** ≤ 10 °C

**Q.** And the IC50 [2, 8]?
**A.** > 10000 nM

**Q.** And the Kd [3, 9]?
**A.** > 1000 nM

**Q.** Which results are given for Nc1nc(Cl)nc2c1c(-c1ccn(Cc3ccccc3)n1)cn2[C@@H]1C[C@H](C2CCNCC2)[C@@H](O)[C@H]1O [Compound 501, (1R,2S,3R,5R)-3-(4-Amino-5-(1-benzyl-1H-pyrazol-3-yl)-2-chloro-7H-pyrrolo[2,3-d]pyrimidin-7-yl)-5-(piperidin-4-yl)cyclopentane-1,2-diol]?
**A.** ΔTm at 500 µM [1, 10]: > 20 °C; IC50 [2, 11]: < 100 nM; Kd [3, 12]: ≤ 10 nM

**Q.** What does the source list for CN1CCC([C@H]2C[C@@H](n3cc(-c4ccn(Cc5ccccc5)n4)c4c(N)nc(Cl)nc43)[C@H](O)[C@@H]2O)CC1 [Compound 502, (1R,2S,3R,5R)-3-(4-amino-5-(1-benzyl-1H-pyrazol-3-yl)-2-chloro-7H-pyrrolo[2,3-d]pyrimidin-7-yl)-5-(1-methylpiperidin-4-yl)cyclopentane-1,2-diol]?
**A.** ΔTm at 500 µM [1, 10]: > 20 °C; IC50 [2, 11]: 100 to 1000 nM; Kd [3, 12]: ≤ 10 nM

**Q.** Nc1ncnc2c1c(-c1nc(Cc3ccccc3)cs1)cn2[C@@H]1C[C@H](C2=CCCNC2)[C@@H](O)[C@H]1O [Compound 503, (1R,2S,3R,5R)-3-(4-amino-5-(4-benzylthiazol-2-yl)-7H-pyrrolo[2,3-d]pyrimidin-7-yl)-5-(1,2,5,6-tetrahydropyridin-3-yl)cyclopentane-1,2-diol] was tested. Which ΔTm at 500 µM [1, 10] did it give?
**A.** 15 to 20 °C

**Q.** And the IC50 [2, 11]?
**A.** 1000 to 10000 nM

**Q.** What about the Kd [3, 12] of the same compound?
**A.** 100 to 1000 nM

**Q.** What does the source list for CCN1CCC([C@H]2C[C@@H](n3cc(-c4nc(Cc5ccccc5)cs4)c4c(N)nc(Cl)nc43)[C@H](O)[C@@H]2O)CC1 [Compound 504, (1R,2S,3R,5R)-3-[4-amino-5-(4-benzyl-1,3-thiazol-2-yl)-2-chloropyrrolo[2,3-d]pyrimidin-7-yl]-5-(1-ethylpiperidin-4-yl)cyclopentane-1,2-diol]?
**A.** ΔTm at 500 µM [1, 7]: > 20 °C; IC50 [2, 8]: 100 to 1000 nM; Kd [3, 9]: ≤ 10 nM
